Measurements from ChEMBL document CHEMBL1133120, “Synthesis and evaluation of isothiocyanate-containing derivatives of the delta-opioid receptor antagonist Tyr-Tic-Phe-Phe (TIPP) as potential affinity labels for delta-opioid receptors” (J Med Chem, 2000).
Where a SMILES comes first, the peptide text is derived from it. [ ]: non-standard residue; d: D form. Phe(4-NH2) = Nc1ccc(C[C@H](N)C(=O)O)cc1; Tic = O=C(O)[C@@H]1Cc2ccccc2CN1

Key:
[1] = target: Delta-type opioid receptor (Mus musculus, UniProt P32300); assay: Binding assay evaluated using […] radioligand in CHO cells transfected with mouse Opioid receptor delta 1; format: cell-based
[2] = target: Mu-type opioid receptor (Rattus norvegicus, UniProt P33535); assay: Binding assay evaluated using DAMGO radioligand in CHO cells transfected with rat Opioid receptor mu 1; format: cell-based
Chain of Mu-type opioid receptor (P33535 whole entry): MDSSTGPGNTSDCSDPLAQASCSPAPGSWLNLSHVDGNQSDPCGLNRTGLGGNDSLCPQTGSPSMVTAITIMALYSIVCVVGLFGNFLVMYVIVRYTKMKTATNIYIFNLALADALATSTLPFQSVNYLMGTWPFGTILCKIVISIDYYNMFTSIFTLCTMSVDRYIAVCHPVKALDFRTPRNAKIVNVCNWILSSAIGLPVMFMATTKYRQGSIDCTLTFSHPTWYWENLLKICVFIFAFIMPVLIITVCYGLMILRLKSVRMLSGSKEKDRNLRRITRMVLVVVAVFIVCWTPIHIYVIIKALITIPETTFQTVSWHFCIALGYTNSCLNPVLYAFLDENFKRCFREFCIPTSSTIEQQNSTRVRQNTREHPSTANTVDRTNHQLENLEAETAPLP

Chain of Delta-type opioid receptor (P32300 whole entry): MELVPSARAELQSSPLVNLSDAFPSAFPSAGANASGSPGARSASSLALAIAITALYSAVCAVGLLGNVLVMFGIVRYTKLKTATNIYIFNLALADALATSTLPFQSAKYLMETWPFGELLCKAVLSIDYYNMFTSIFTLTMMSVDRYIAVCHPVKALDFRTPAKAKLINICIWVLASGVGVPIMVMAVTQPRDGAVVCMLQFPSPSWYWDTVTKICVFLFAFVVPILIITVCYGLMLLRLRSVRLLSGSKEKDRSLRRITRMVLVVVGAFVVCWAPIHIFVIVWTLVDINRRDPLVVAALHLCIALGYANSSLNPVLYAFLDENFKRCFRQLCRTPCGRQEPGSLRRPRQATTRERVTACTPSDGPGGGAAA

| SMILES | IC50 [1] [µM] | IC50 [2] [µM] |
| --- | --- | --- |
| N[C@@H](Cc1ccc(O)cc1)C(=O)N1Cc2ccccc2C[C@H]1C(=O)N[C@@H](Cc1ccc(N=C=S)cc1)C(=O)N[C@@H](Cc1ccccc1)C(=O)O | 0.0124 | > 10 |
| N[C@@H](Cc1ccc(O)cc1)C(=O)N1Cc2ccccc2C[C@H]1C(=O)N[C@@H](Cc1ccccc1)C(=O)N[C@@H](Cc1ccc(N=C=S)cc1)C(=O)O | 0.0054 | > 10 |
| N[C@@H](Cc1ccc(O)cc1)C(=O)N1Cc2ccccc2C[C@H]1C(=O)N[C@@H](Cc1ccccc1)C(=O)N[C@@H](Cc1ccccc1)C(=O)O (H-Y[Tic]FF-OH) | 0.0058 | 22.7 |
| Nc1ccc(C[C@H](NC(=O)[C@H](Cc2ccccc2)NC(=O)[C@@H]2Cc3ccccc3CN2C(=O)[C@@H](N)Cc2ccc(O)cc2)C(=O)O)cc1 (H-Y[Tic]F[Phe(4-NH2)]-OH) | 0.0118 | > 10 |
| Nc1ccc(C[C@H](NC(=O)[C@@H]2Cc3ccccc3CN2C(=O)[C@@H](N)Cc2ccc(O)cc2)C(=O)N[C@@H](Cc2ccccc2)C(=O)O)cc1 (H-Y[Tic][Phe(4-NH2)]F-OH) | 0.0877 | > 10 |
